These results are taken from publication PMC314469, “Protein Interaction Networks by Proteome Peptide Scanning” (PLoS Biology, 2004).

The first assay deals with Myo5 SH3 domain. Briefly: SPOT analysis of cellulose-bound peptides (WISE), Myo5 SH3 domain (Dataset S4). To be noted: SPOT analysis of cellulose-bound 14-mer yeast proteome peptides, Myo5 SH3 domain; normalized value; mean where the peptide was synthesized more than once. Type of assay: binding, Saccharomyces cerevisiae.
TLRSMIPPFTPQLD: the “The normalized value in BLU units” value is 412.7 BLU. Same read-out and setting: as for TPINFVFPNLPLEH, the figure is 81.8 BLU. Turning to TPMDFPEPVGPLAI, the “The normalized value in BLU units” value is 175.4 BLU. The same measure, in the same setting: for TPTHHHIPHIPNQN the value was 147.9 BLU. Same read-out and setting: for TPTPHPHPHTPHPH the value was 157.9 BLU. For TPYQLLSPILPVLL, the “The normalized value in BLU units” value turned out to be 287.1 BLU.

For the sequence TQSGRMGPSEPKHR, the “The normalized value in BLU units” value is recorded as 455.6 BLU.

With TSCTKEKPTPPTTT, the “The normalized value in BLU units” value was found to be 118.4 BLU. For the sequence TWKMHLWPVSPPQL, the “The normalized value in BLU units” value worked out at 224.0 BLU.

As for TYGFRVRPDFPVFG, the “The normalized value in BLU units” value worked out at 357.0 BLU.

TYLTRPLPSTPNED: the “The normalized value in BLU units” value amounted to 101.0 BLU. Still for that read-out and setting: as for VAGYFVIPHTPMPS, the figure is 179.6 BLU. Still for that read-out and setting: for VAKSYGFPVPPKVN the value was 258.9 BLU; for VAPGLWFPNSPPPL, 4831.4 BLU. Still for that read-out and setting: as for VAWCHDSPKPPSDR, the figure is 30.6 BLU; as for VELHFPKPEDPACI, 14.9 BLU; as for VFGTYLGPDAPLSK, 130.5 BLU. On to VFKFLFHPVTPSHF, for which the “The normalized value in BLU units” value stood at 564.7 BLU. Still for that read-out and setting: as for VFSCLRDPVIPIKL, the figure is 132.4 BLU; as for VLEAYNVPTPPRLE, 57.4 BLU.

As for VLKNLPTPGEPFNF, the “The normalized value in BLU units” value is on record as 148.4 BLU.

As for VLLPLRLPEIPPKG, the “The normalized value in BLU units” value came out at 1072.4 BLU.

As to VLTKMNAPQKPEDI, the “The normalized value in BLU units” value was determined as 296.2 BLU.

VPDSYKPPKNPIVF: the “The normalized value in BLU units” value came out at 829.4 BLU. Same read-out and setting: for VPGEHFAPMGPNGQ the value was 64.7 BLU; for VPIIFEIPFNPIYK, 214.9 BLU. As for VPPNFNAPPNPMAF, the “The normalized value in BLU units” value came to 1568.9 BLU. On to VPSAFTAPPVPTKK, for which the “The normalized value in BLU units” value is 358.2 BLU. On to VTSVKLHPNLPIVF, for which the “The normalized value in BLU units” value came out at 136.6 BLU. Still for that read-out and setting: as for WETWLYKPGMPPRP, the figure is 255.2 BLU; as for YASQYSRPDGPILL, 113.5 BLU.

The assay is the same for the next values; noted with them: SPOT analysis of cellulose-bound peptides probed with Myo5 SH3 domain; normalized value.
Take TLPPLSSPMNPNGH: the “The normalized value in BLU units (SPOT analysis, Myo5 SH3)” value was 252.3 BLU.

TPPPPPLPSVLSS: the “The normalized value in BLU units (SPOT analysis, Myo5 SH3)” value is 25804 BLU.

For TPSNMGSPGSPVNV, the “The normalized value in BLU units (SPOT analysis, Myo5 SH3)” value stood at 156.2 BLU. Still for that read-out and setting: as for VARPLSVPGSPRDL, the figure is 186.0 BLU. Turning to VAVPFTLPVIPYDL, the “The normalized value in BLU units (SPOT analysis, Myo5 SH3)” value was determined as 240.5 BLU. Consider VEPEWYLPILPMIL, for which the “The normalized value in BLU units (SPOT analysis, Myo5 SH3)” value stood at 235.7 BLU. On the same count and under the same terms, as for VEVIMHSPSDPEYA, the figure is 150.4 BLU; as for VFLRLISPTRPSLE, 1635.5 BLU. Still for that read-out and setting: as for VFSLMNCPAYPDVQ, the figure is 153.4 BLU.

For VLFNLDHPMVPENL, the “The normalized value in BLU units (SPOT analysis, Myo5 SH3)” value was 220.3 BLU. The same measure, in the same setting: for VLGVLNVPLPPQTR the value was 233.0 BLU. Take VLIKFVIPVYPSLP: the “The normalized value in BLU units (SPOT analysis, Myo5 SH3)” value was determined as 561.8 BLU. Still for that read-out and setting: for VLKGFYSPSAPSYD the value was 290.1 BLU; for VLKTLAFPINPSDI, 156.0 BLU.

As to VLSKFIKPKNPSLV, the “The normalized value in BLU units (SPOT analysis, Myo5 SH3)” value turned out to be 319.5 BLU. Turning to VPAILMTPICPRSL, the “The normalized value in BLU units (SPOT analysis, Myo5 SH3)” value turned out to be 138.1 BLU. Same read-out and setting: for VPDQLLTPLQPYTI the value was 168.3 BLU; for VPGGMSIPGAPQGA, 139.5 BLU; for VPLPFGIPPFPMFP, 11610.9 BLU. Same read-out and setting: as for VPNRWATPLDPSIL, the figure is 125.7 BLU; as for WLLPYSLPMHPGRW, 706.0 BLU. The same measure, in the same setting: for WLSKLVLPPPPVSI the value was 4130.6 BLU.

Still in this assay, the particulars now being: SPOT analysis of membrane-bound peptides, Myo5 SH3 domain; normalized value (see methods).
For TLNDRQIPLSPDQM, the “The normalized value in BLU units” value was 73.6 BLU. Turning to TMKNKPKPTPPSPP, the “The normalized value in BLU units” value stood at 909.8 BLU. Same read-out and setting: for TNGPRYSPQNPRPF the value was 158.5 BLU; for TNSVKATPVPPTLA, 168.0 BLU. Still for that read-out and setting: for TPQSRFPPYSPLLP the value was 442.7 BLU; for TQMKRLKPVSPGLR, 1445.1 BLU; for TQPVRKNPEAPARR, 232.1 BLU. Still for that read-out and setting: for TSNTKWTPITPSVI the value was 141.7 BLU. TSSLRKPPNGPSSV: the “The normalized value in BLU units” value amounted to 143.8 BLU. Still for that read-out and setting: for TSWARDNPSKPDIA the value was 81.6 BLU; for TTRRKKDPNAPKRR, 999.1 BLU; for TTTYKSRPDRPKPV, 309.3 BLU. On the same count and under the same terms, as for TVCDRLIPTSPQKT, the figure is 127.7 BLU; as for TYIWRYLPAPPVCI, 444.5 BLU; as for VAPNRIPPKVPVIN, 61069.9 BLU.

Turning to VASSRTEPSTPSRP, the “The normalized value in BLU units” value stood at 178.5 BLU. Still for that read-out and setting: as for VCHSKYIPLKPIQD, the figure is 298.3 BLU; as for VDSFKYEPLAPGND, 134.0 BLU; as for VEKRKFTPIEPSLL, 171.2 BLU. On the same count and under the same terms, as for VEMKRKKPVRPVDI, the figure is 472.2 BLU. On the same count and under the same terms, as for VFYHRPAPKPPVTK, the figure is 9049.3 BLU. VIIGKTTPISPDEE: the “The normalized value in BLU units” value worked out at 54.0 BLU. In the case of VKRPRLNPFLPRDE, the “The normalized value in BLU units” value is reported as 1186.3 BLU. The same measure, in the same setting: for VNTPRSVPNSPNDG the value was 65.0 BLU. The same measure, in the same setting: as for VPIDKKSPFYPGLD, the figure is 150.4 BLU; as for VQIKRADPHFPHDE, 132.0 BLU. Regarding VRSKRLFPVRPMAT, the “The normalized value in BLU units” value was found to be 503.5 BLU. The same measure, in the same setting: for VSKAKLQPAKPQFT the value was 252.3 BLU; for VSQRKKRPISPHLT, 814.5 BLU. The same measure, in the same setting: for VVPERVKPAPPVSR the value was 149.8 BLU. The same measure, in the same setting: as for VWGPKPVPFQPMDV, the figure is 96.9 BLU. Regarding WEALKSVPIPPRKN, the “The normalized value in BLU units” value amounted to 379.0 BLU.

Consider WFILKLFPHEPIEG, for which the “The normalized value in BLU units” value worked out at 1272.7 BLU. The same measure, in the same setting: for WLDEKRIPSTPVDY the value was 240.0 BLU; for YAVDKIMPPTPAKK, 109.8 BLU; for YCPWKLCPLLPILY, 176.0 BLU.

Still in this assay, the particulars now being: SPOT analysis of membrane-synthesized peptides probed with Myo5 SH3 domain; normalized value.
Turning to TSGYKYFPQFPQLK, the “The normalized value in BLU units (SPOT analysis, Myo5 SH3)” value stood at 234.6 BLU. Same read-out and setting: for TSISRISPQDPEAK the value was 194.2 BLU; for TSSSRRGPGRPRKD, 619.5 BLU; for TTKHKAPPPPPPTA, 1684.9 BLU.

Take TTNSRLCPSSPSSS: the “The normalized value in BLU units (SPOT analysis, Myo5 SH3)” value is 160.8 BLU. Still for that read-out and setting: as for TTRKKKDPNAPKRA, the figure is 274.6 BLU. Same read-out and setting: as for TTTIKNRPVPPPLP, the figure is 1868.9 BLU; as for TVRTRRRPPPPPIP, 46234.4 BLU. Same read-out and setting: for VCTIRSTPSQPIHC the value was 244.9 BLU; for VEVDKKVPVLPMVA, 129.9 BLU. VFVEKSKPTYPGTE: the “The normalized value in BLU units (SPOT analysis, Myo5 SH3)” value worked out at 96.4 BLU.

For VHFYKSLPQGPAPA, the “The normalized value in BLU units (SPOT analysis, Myo5 SH3)” value stood at 509.7 BLU. Regarding VHVLKYAPDEPNSL, the “The normalized value in BLU units (SPOT analysis, Myo5 SH3)” value is 191.3 BLU. Turning to VKATKWPPKLPEIQ, the “The normalized value in BLU units (SPOT analysis, Myo5 SH3)” value is reported as 57.4 BLU. Same read-out and setting: for VKKEKKPPKIPKKV the value was 534.4 BLU; for VKPTKLEPENPQKP, 91.3 BLU; for VLFMKGTPEFPKCG, 212.8 BLU. On the same count and under the same terms, as for VLGPKYDPKCPEEH, the figure is 156.7 BLU; as for VLKIKPLPYKPRGR, 646.7 BLU; as for VLTVKMSPSLPDEI, 229.5 BLU. Consider VNIGRRSPYLPLQP, for which the “The normalized value in BLU units (SPOT analysis, Myo5 SH3)” value worked out at 476.3 BLU. As to VTDIKLTPTDPLVG, the “The normalized value in BLU units (SPOT analysis, Myo5 SH3)” value worked out at 851.7 BLU. Still for that read-out and setting: as for VVAVKIIPKKPWNA, the figure is 114.7 BLU; as for VVNEKEVPAEPETQ, 100.0 BLU; as for VYRRKCIPFAPHQI, 382.9 BLU. Still for that read-out and setting: as for WENFKEEPGEPLSR, the figure is 96.8 BLU. The same measure, in the same setting: for WFDLKGLPRQPEPL the value was 101.7 BLU; for WLDEKRIPSTPIDY, 163.3 BLU; for WLGNKYDPENPFND, 88.8 BLU. On to WRWARDTPRAPGLH, for which the “The normalized value in BLU units (SPOT analysis, Myo5 SH3)” value was determined as 2104.5 BLU. As to WSQMRMNPTNPDWI, the “The normalized value in BLU units (SPOT analysis, Myo5 SH3)” value was 81.2 BLU. As to YAVGRIVPDSPTYD, the “The normalized value in BLU units (SPOT analysis, Myo5 SH3)” value amounted to 189.3 BLU.
